Experimental data from patent EP0976747A2, “Use of 5HT-1F receptor antagonists for treating anxiety disorders” (ELI LILLY AND COMPANY, priority 1998, dated 2000).

System: male Wister rats
Test: Social interaction test of experimental anxiety
Format: in vivo
Settings: 20 mg/kg intraperitoneal, tested 1 hour after dosing, 5 minutes observation, compared to baseline, significance at p<0.01
Method: The procedure for this assay is summarized below.
All experiments were performed on male Wister rats (Harlan laboratories, 275-300 gm). The rats were individually housed in a temperature controlled room (72°F) on a 12 hour day/night cycle. The rats were provided food and water ad libitum.
Approximately 40 mg of the test compound was weighed into a 20 mL glass vial. To this solid were added 80µL of lactic acid (85%). The mixture was sonicated for 2 minutes and then 4mL of distilled water was added in lmL increments. Sonication of this mixture was continued until all of the solid had dissolved. Following sonication, the pH of the mixture was raised by the addition of dilute aqueous sodium hydroxide until the mixture reached a pH of about 5.5.
Each rat was weighed and the test compound administered by intraperitoneal injection at 20 mg/kg of body weight. […]
Experimental anxiety was measured by a social interaction test. […] A video camera was fixed above the social interaction box and all behavioral tests were recorded. […] The amount of time that the rat which received test compound spent interacting (i.e. grooming, sniffing, crawling upon) with the other rat was recorded. […]
Social interaction data was analyzed as total interaction time in seconds and the raw scores were compared between baseline and treatment. […]

For `O[C@H](COc1ccc2ccccc2c1)CN1CCC(O)(c2cnc3ccccc3c2)CC1` [Example 37, 1-((2S)-hydroxy-3-(naphth-2-yloxy)prop-1-yl)-4-hydroxy-4-(quinolin-3-yl)piperidine], the social interaction time was “significantly increase social interaction time as compared to baseline”.
